# Reference: patent US20100273144A1, “NOVEL USE OF GRP 94 IN VIRUS INFECTION” (priority 2008, published 2010)
# Key:
# [1] = molecular target: T1, IKKα/β (Homo sapiens, UniProt O14920+O15111); assay: Effect of BAY11-7082 on expression of NF-κB-related survival genes, Western-blot, control and GRP94-overexpressing cells; format: cell-based; design: dose or concentration left out as unconfirmed
# T1 construct: were monitored using GRP94-overexpressing and control cell lines; endogenous in cells; host or cells: Huh-7 cells stably carrying pCDNA3.1 (control) or pCDNA3.1-GRP94
# T1 sequence (O15111 whole entry): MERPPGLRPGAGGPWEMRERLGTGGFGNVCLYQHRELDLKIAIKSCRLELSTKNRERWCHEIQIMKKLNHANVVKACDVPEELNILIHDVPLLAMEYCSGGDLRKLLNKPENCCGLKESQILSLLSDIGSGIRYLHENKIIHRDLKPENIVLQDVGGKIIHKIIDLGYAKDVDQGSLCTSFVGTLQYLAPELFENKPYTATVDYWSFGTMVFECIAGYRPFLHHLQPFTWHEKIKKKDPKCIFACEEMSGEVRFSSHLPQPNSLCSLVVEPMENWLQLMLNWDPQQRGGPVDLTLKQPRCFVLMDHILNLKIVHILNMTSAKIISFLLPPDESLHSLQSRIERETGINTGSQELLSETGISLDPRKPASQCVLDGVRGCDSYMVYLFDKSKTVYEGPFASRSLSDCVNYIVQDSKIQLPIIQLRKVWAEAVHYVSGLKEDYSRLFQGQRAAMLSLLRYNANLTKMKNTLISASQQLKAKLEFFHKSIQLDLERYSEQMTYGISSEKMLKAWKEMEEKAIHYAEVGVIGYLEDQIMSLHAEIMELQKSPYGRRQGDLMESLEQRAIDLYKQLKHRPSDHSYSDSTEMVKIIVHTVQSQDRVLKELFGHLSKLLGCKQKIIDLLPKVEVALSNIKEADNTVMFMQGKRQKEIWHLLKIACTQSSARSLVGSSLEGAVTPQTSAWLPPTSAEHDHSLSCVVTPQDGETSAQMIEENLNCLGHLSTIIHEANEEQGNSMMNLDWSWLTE
# T1 sequence (O14920 whole entry): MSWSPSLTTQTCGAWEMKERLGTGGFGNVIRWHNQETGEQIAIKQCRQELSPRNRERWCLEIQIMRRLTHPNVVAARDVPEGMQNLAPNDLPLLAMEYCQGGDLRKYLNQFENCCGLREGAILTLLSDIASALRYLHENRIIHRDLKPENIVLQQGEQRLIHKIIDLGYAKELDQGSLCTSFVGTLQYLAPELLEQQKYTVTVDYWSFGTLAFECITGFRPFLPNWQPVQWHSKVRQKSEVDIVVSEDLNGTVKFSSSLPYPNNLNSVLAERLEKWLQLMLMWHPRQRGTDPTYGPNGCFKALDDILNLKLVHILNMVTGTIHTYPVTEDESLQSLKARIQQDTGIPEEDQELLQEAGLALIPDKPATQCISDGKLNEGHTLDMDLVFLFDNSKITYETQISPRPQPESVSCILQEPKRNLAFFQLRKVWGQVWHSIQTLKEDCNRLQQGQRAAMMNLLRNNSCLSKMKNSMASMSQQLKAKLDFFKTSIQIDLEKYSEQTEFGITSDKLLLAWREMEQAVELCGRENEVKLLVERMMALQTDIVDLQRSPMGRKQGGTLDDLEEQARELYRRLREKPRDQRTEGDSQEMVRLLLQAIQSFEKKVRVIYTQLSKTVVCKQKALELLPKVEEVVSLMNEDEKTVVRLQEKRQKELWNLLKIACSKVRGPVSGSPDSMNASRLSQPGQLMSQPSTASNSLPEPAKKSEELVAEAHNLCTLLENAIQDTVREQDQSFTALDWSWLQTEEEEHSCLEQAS
# T1 sequence (Q9Y6K9 whole entry partner): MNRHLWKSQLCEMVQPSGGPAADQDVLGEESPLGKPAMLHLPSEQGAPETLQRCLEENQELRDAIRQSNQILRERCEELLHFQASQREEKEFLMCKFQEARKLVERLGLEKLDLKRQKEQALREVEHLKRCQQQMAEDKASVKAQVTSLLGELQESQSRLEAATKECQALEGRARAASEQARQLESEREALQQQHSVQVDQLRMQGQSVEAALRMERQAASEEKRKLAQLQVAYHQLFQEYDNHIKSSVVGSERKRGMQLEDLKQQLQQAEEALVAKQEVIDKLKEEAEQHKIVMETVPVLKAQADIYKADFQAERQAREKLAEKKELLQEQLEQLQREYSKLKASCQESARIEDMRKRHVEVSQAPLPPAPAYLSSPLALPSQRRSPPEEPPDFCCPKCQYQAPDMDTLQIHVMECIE
# Procedure: Western-blot analysis—Proteins were resolved by 8% or 13.5% SDS-PAGE and transferred to nitrocellulose membranes (Amersham). The membranes were blocked overnight with 5% skimmed milk in Tris-buffered saline (TBS) [20 mM Tris-HCl (pH 7.5), 150 mM NaCl, 0.5% Tween-20] and then incubated with monoclonal antibodies against actin (1:5000), GRP94 (1:1000), Hsp90 (1:1000), TRAF2 (1:500), XIAP (1:1000), survivin (1:500), glyceraldehyde-3-phosphate dehydrogenase (GAPDH) (1:5000) and IKKα/β for 5 hours. A monoclonal anti-human actin antibody was used as a control. […]
# The inventors tried to determine the stage of the signaling cascade at which NF-κB is activated by GRP94. […] The effects of BAY11-7082, a specific inhibitor of IKKα/β, on the expression of NF-κB-related gene products were monitored using GRP94-overexpressing and control cell lines, and the obtained results are shown in FIG. 4B. […] Effect of abrogation of IKKα/β activity by BAY11-7082 on the expression of NF-κB-related survival genes was monitored by Western-blot analysis; lanes 2 and 4 show results with and lanes 1 and 3 show results without treatment of the drug […] for 4 hrs on control (lanes 1 and 2) and GRP94-overexpressing (lanes 3 and 4) cells.
# [2] = test system: NF-κB; assay: NF-κB reporter assay (firefly luciferase under NF-κB response element) in 293T cells; format: cell-based; conditions: 10 ng TNF-α for 12 hours, vs mock-treated
# Procedure: (§1) Luciferase assay—Luciferase assays were performed using a luciferase assay kit (Promega), according to the manufacturer's instructions. The luciferase activities in the cells were normalized by the protein concentrations, as determined by the Bradford assay.
# The activation of NF-κB by overproduction of GRP94 was investigated by measuring the activity of a reporter gene (firefly luciferase) under the control of the […] response element (FIG. 4A). […] 293T cells were transfected with pNF-κB-Luc, which encodes the firefly luciferase gene under the control of a NF-κB response element, with control vector plasmid (pCDNA3.1) (lane 3) or with the plasmid pCDNA3.1-GRP94, which produces. GRP94 (lane 4). Control plasmid pRLCMV-Luc (Promega) was also cotransfected to normalize transfection efficiency. After incubation of the cells for 48 hours, cells were further incubated in serum-free medium for 6 hours, mock-treated (lane 1), or treated with 10 ng TNF-α for 12 hours (lane 2), before luciferase activities were measured. Three independent experiments were performed and the relative values (TNF-α-treated vs mock-treated, and GRP94-overexpressed vs mock-expressed) are shown.
# [3] = test system: IκBα; assay: Time-course analysis of IκBα levels after TNF-α treatment, Western-blot, Huh-7 cells with or without HCV replicons; format: cell-based; conditions: TNF-α 10 ng/ml
# Procedure: Western-blot analysis—Proteins were resolved by 8% or 13.5% SDS-PAGE and transferred to nitrocellulose membranes (Amersham). The membranes were blocked overnight with 5% skimmed milk in Tris-buffered saline (TBS) [20 mM Tris-HCl (pH 7.5), 150 mM NaCl, 0.5% Tween-20] and then incubated with monoclonal antibodies against actin (1:5000), GRP94 (1:1000), Hsp90 (1:1000), TRAF2 (1:500), XIAP (1:1000), survivin (1:500), glyceraldehyde-3-phosphate dehydrogenase (GAPDH) (1:5000) and IKKα/β for 5 hours. A monoclonal anti-human actin antibody was used as a control. Horseradish-peroxidase-conjugated anti-mouse, anti-goat or anti-rabbit immunoglobulin Gs (IgGs) were used as secondary antibodies (1:5000), and bands were visualized by enhanced chemiluminescence (ECL) according to the manufacturer's instructions (Amersham).
# The protein level of IκBα in control Huh-7 cells, Huh-7 cells containing replicons FK-E1 (UAA), and FK-E2(UAA) were measured by Western-blot assays with time; this is because the phosphorylation-dependent degradation of IκBs is an essential step for NF-κB activation after TNF-α treatment. […] Within 5 minutes of TNF-α treatment, IκBα proteins were not detected in the control Huh-7 cells (FIG. 1C). In Huh-7 cells containing the replicon FK-E1(UAA) that expresses NS3-5B, core and E1 proteins, the degradation of IκBα was delayed by up to 10 minutes after treatment with TNF-α (FIG. 1C).
# [4] = test system: HCV strain JFH 5a-Rluc; assay: HCV infectivity assessed by luciferase activity of JFH 5a-Rluc in Huh-7 cells; format: cell-based, hepatitis C virus; conditions: siRNA 48 hours before infection, TRAIL 18 hours after 24 hours infection
# Procedure: as §1
# To confirm that the anti-apoptotic activity of E2 is induced by GRP94 and NF-κB-related gene products in HCV-infected cells, the levels of GRP94, XIAP, TRAF2, FLIP and Bcl-xL were monitored using a HCV-infection system. The infectious JFH1 strain of HCV (Wakita T, Pietschmann T, Kato T, Date T, Miyamoto M, Zhao Z, Murthy K, et al. Production of infectious hepatitis C virus in tissue culture from a cloned viral genome. Nat Med 2005; 11:791-796) and a JFH1 derivative known as JFH5a-Rluc with a reporter gene (Renilla luciferase) in the NS5A of HCV (FIG. 6A) that is suitable for quantification of HCV infection (Kim C S, Jung J H, Wakita T, Yoon S K, Jang S K. Monitoring the Antiviral Effect of Alpha Interferon on Individual Cells. J. Virol. 2007; 81:8814-8820) were used. […]
# Huh-7 cells were transfected with a control siRNA (lanes 1, 2, 5 and 6) and a siRNA against GRP94 (lanes 3, 4, 7 and 8) and incubated for 48 hours. […] The levels of PARP, GRP94 and actin were monitored by Western-blot analysis. The HCV infectivity levels were assessed by measuring luciferase activities. […]
# [5] = test system: control, GRP94-overexpressing and E2-expressing cells; assay: TRAIL-induced apoptosis monitored by cleavage of PARP (Western-blot) in control, GRP94-overexpressing and E2-expressing cells; format: cell-based; conditions: 200 ng/ml TRAIL for 2 hours
# Source text: The role of GRP94 in inhibition of apoptosis during HCV infection was investigated using a siRNA against GRP94 and a control siRNA, the GRP94-overexpressing, and the E2-expressing cell lines (FIG. 5). The strong apoptosis inducer TRAIL was used to mimic the physiological conditions of a virus infection that induces TRAIL expression. Cleavage of PARP, which is a substrate of activated caspase-3/7, was used to monitor the process of apoptosis. The obtained results were shown in FIG. 5, wherein control (lanes 1-4), GRP94-overexpressing (lanes 5-8), and E2-expressing (lanes 9-12) cells were mock-treated (lanes 1, 3, 5, 7, 9 and 11) or treated with 200 ng/ml TRAIL (lanes 2, 4, 6, 8, 10 and 12) for 2 hours after treatment with a control siRNA (lanes 3, 4, 7, 8, 11 and 12) or a siRNA against GRP94 (lanes 1, 2, 5, 6, 9 and 10). The levels of uncleaved PARP, GRP94, HCV E2 and actin were monitored by Western-blot analysis.
# [6] = test system: HCV-infected Huh-7 cells; assay: TRAIL-induced PARP cleavage in mock-infected and HCV (JFH 5a-Rluc)-infected Huh-7 cells; format: cell-based; conditions: TRAIL for 18 hours
# Procedure: Huh-7 cells were transfected with a control siRNA (lanes 1, 2, 5 and 6) and a siRNA against GRP94 (lanes 3, 4, 7 and 8) and incubated for 48 hours. The siRNA-treated cells were mock-infected (lanes 1-4) or infected with HCV (JFH 5a-Rluc) (lanes 5-8) and incubated for 24 hours. After infection, the cells were mock-treated (lanes 1, 3, 5 and 7) or treated with TRAIL (lanes 2, 4, 6 and 8) for 18 hours. These cells were used to monitor protein levels (upper panel) and virus infection (lower panel). The levels of PARP, GRP94 and actin were monitored by Western-blot analysis. The HCV infectivity levels were assessed by measuring luciferase activities. Experiments were performed six times with triplicate samples each, and mean and standard deviation values of the experiments are shown as columns and lines, respectively.
molecule,measurement,setting,value
Cc1ccc(S(=O)(=O)/C=C/C#N)cc1 [BAY11-7082],levels of GRP94 protein,[1],reduced
same,"levels of XIAP, TRAF2, survivin, and IKKα/β",[1]; GRP94-expressing and control cells,markedly reduced
tumor necrosis factor (TNF)-α [TNF-α],increase in NF-κB reporter activity,[2],about 10 fold
same,time after TNF-α treatment at which residual IκBα proteins were not detected,[3]; FK-E2(UAA)-containing Huh-7 cells,≤ 5 min
same,delay of degradation of IκBα after treatment with TNF-α,[3]; Huh-7 cells containing replicon FK-E1(UAA),up to 10 minutes
same,time after TNF-α treatment at which IκBα proteins were not detected,[3]; control Huh-7 cells,≤ 5 min
"tumor necrosis-related apoptosis-inducing ligand (protein, UniProt P50591 1-281, looked up) Tumor necrosis factor ligand …: MAMMEVQGGPSLGQTCVLIVIFTVLLQSLCVAVTYVYFTNELKQMQDKYSKSGIACFLKEDDSYWDPNDEESMNSPCWQVKWQLRQLVRKMILRTSEETISTVQEKQQNISPLVRERGPQRVAAHITGTRGRSNTLSSPNSKNEKALGRKINSWESSRSGHSFLSNLHLRNGELVIHEKGFYYIYSQTYFRFQEEIKENTKNDKQMVQYIYKYTSYPDPILLMKSARNSCWSKDAEYGLYSIYQGGIFELKENDRIFVSVTNEHLIDMDHEASFFGAFLVG",reduction of infectivity of HCV,[4],about 20%
same,cleavage of PARP,[5]; GRP94-overexpressing and HCV-E2-expressing cells,blocked
same,cleavage of PARP,"[5]; control cells, with control siRNA or GRP94 siRNA",observed
same,levels of PARP cleavage,[6]; HCV-infected Huh-7 cells,almost no reductions
same,cleavage of PARP,[6]; mock-infected Huh-7 cells,observed
